Assay results: patent publication US20240383908A1, “SYNTHESIS AND APPLICATION OF PHOSPHATASE DEGRADER” (HINOVA PHARMACEUTICALS INC., priority 2021, published 2024)

Target: T1, SHP2 protein (Homo sapiens, UniProt Q06124)
T1 sequence (Q06124 1-593): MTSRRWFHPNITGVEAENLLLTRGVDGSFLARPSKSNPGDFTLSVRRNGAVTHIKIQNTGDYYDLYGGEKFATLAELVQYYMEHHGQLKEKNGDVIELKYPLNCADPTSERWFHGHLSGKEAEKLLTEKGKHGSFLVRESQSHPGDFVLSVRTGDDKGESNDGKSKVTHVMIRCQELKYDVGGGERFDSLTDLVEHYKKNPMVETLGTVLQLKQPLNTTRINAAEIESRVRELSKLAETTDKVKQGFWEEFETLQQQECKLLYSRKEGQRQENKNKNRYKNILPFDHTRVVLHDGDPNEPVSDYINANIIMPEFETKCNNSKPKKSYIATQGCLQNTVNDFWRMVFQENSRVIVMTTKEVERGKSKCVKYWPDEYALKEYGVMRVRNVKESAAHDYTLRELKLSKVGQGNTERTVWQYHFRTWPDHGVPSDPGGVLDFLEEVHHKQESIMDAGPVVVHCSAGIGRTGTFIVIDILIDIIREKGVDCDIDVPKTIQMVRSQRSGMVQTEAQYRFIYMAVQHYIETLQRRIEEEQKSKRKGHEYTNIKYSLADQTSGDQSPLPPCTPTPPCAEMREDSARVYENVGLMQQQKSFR
Test: Degradation activity on SHP2 protein in MV-411 cells (Western blot, DC50)
Format: cell-based
Design: endogenous in cells
Conditions: MV411 cells, 24 hours, read-out: Degradation activity for differenct cell lines MV411 (DC50)
Procedure: • MV-411 cell line (COBIER, CBP-60522) • FBS (GEMINI, Cat. No. 900-108) • 0.01M PBS (Biosharp, Cat. No. 162262) • IMDM (Hyclone, Cat. No. SH30228.01) • Penicillin-Streptomycin (Gibco, Cat. No. 15140122) • DMSO (Sigma, Cat. No. D5879) • Centrifuge Tube, 15 ml (Excell Bio, Cat. No. CS015-0001) • Cell Culture Dish, (WHB, Cat. No. CS016-0128) • 12-well cell culture cluster (Corning, Cat. No. 3513) • RIPA lysate buffer (Thermo, Cat. No. 89900) • Protein Loding Buffer (Beyotime, Cat. No. P0015L) • BCA Protein Assay Kit (EpiZyme, Cat. No. ZJ102) • SDS-PAGE Fast Preparation Kit (EpiZyme, Cat. No. PG112) • Anti-GAPDH (14C10) Rabbit mAb (CST, Cat. No. 2118L) • Anti-SHP2 rabbit mAb (CST, Cat. No. 37525) • Peroxidase Affinipure (HRP) Goat Anti-Rabbit IgG (Zen Bioscience, Cat. No. 511203) • TBST (Biosharp, Cat. No. BL601A) • ECL chemiluminescence kit (4A Biotech, Cat. No. 4AW011-200)
• (1) Cell culture medium: IMIDM medium+10% FBS+1% Pen Strep; • (2) PBS buffer: PBS powder was dissolved in 2 L of ultrapure water and sterilized; • (3) Cell lysate: RIPA lysate buffer is added with protease inhibitors at a ratio of 1:1000 before use.
(1) MV-411 cells were cultured in the cell culture medium, and then well-growing cells were selected and inoculated in a 12-well plate, with 1 mL/well and 1×10^6 cells/well. The plate was incubated overnight in a 5% CO2 cell incubator at 37° C.
(2) 10 mM storage solution of each drug was prepared using dimethylsulfoxide (DMSO). The stock solution was diluted gradually with DMSO before use, and then 1 μL of the compound solution was added to the cell culture well (to ensure that the DMSO concentration in the culture system was […]), so that the final drug concentration is 100 nM, 10 nM, 3 nM, 1 nM, 0.3 nM, and 0.1 nM. Two wells were set for each concentration. The plate was gently shaken and mixed. Additionally, negative control wells (containing an equal amount of DMSO) and positive control wells were included.
(3) After 24 hours of cultivation, the cells were lysed using RIPA cell lysate, and the proteins were extracted. The protein concentration was measured using a BCA assay kit. 5× concentrated protein buffer was loaded, heated at 100° C. for 5 min, and then the sample was stored at −20° C.
(4) For each well, 30 μg of protein was loaded to polyacrylamide gel for electrophoresis.
(5) The protein was transferred from polyacrylamide gel to PVDF membrane, and sealed at room temperature with 5% skimmed milk for 1 h, which was then incubated with the primary antibodies (Anti-SHP2 rabbit mAb and Anti-GAPDH rabbit mAb) at 4° C. overnight. The membrane was washed three times with TBST solution, 10 minutes for each time. After that, the membrane was incubated with the secondary antibodies (horseradish peroxidase labeled goat anti-rabbit IgG) at room temperature for 2 h, and then washed three times with TBST solution, 10 minutes for each time, followed by exposure.
(6) The images were analyzed with Image J grayscale, and the degradation ratio of protein bands in the test group was calculated, based on the negative control group (DMSO) (100%).
(7) Using the Dose-response-inhibition equation in the data processing software GraphPad Prism 8, the DC50 value was obtained (which represents the drug concentration corresponding to 50% degradation of the target protein).
Finally, ECL detection solution was added for color development, and photos were taken with an automatic chemiluminescence instrument, so as to collect images and analyze them.

SMILES	DC50 [nM]
CC1(N)CCN(c2cnc(Sc3cccc(NC(=O)CCCCC(=O)Nc4cccc5c4CN(C4CCC(=O)NC4=O)C5=O)c3)cn2)CC1 (stereo not shown) [Compound 1]	> 1000
CC1(N)CCN(c2cnc(Sc3cccc(NC(=O)CCCCCCCC(=O)NCc4ccc5c(c4)CN(C4CCC(=O)NC4=O)C5=O)c3)cn2)CC1 (stereo not shown) [Compound 2]	100 to 1000
CC1(N)CCN(c2cnc(Sc3cccc(NC(=O)COCCOCCOCCOCC(=O)NCc4ccc5c(c4)CN(C4CCC(=O)NC4=O)C5=O)c3)cn2)CC1 (stereo not shown) [Compound 3]	100 to 1000
CC1(N)CCN(c2cnc(Sc3cccc(NC(=O)COCCOCCOCCOCC(=O)Nc4ccc5c(c4)C(=O)N(C4CCC(=O)NC4=O)C5)c3)cn2)CC1 (stereo not shown) [Compound 4]	100 to 1000
CC1(N)CCN(c2cnc(Sc3cccc(NC(=O)CC(=O)Nc4cccc5c4CN(C4CCC(=O)NC4=O)C5=O)c3)cn2)CC1 (stereo not shown) [Compound 5]	> 1000
Cc1ncsc1-c1ccc([C@H](C)NC(=O)[C@@H]2C[C@@H](O)CN2C(=O)[C@@H](NC(=O)COCCOCCOCCOCC(=O)Nc2ccc(Sc3cnc(N4CCC(C)(CN)CC4)cn3)c(Cl)c2)C(C)(C)C)cc1 [Compound 7]	100 to 1000
CC1(CN)CCN(c2cnc(Sc3ccc(NC(=O)COCCOCC(=O)Nc4ccc5c(c4)C(=O)N(C4CCC(=O)NC4=O)C5)cc3Cl)cn2)CC1 (stereo not shown) [Compound 8]	> 1000
CC1(N)CCN(c2cnc(Sc3cccc(NC(=O)CC(=O)Nc4ccc5c(c4)C(=O)N(C4CCC(=O)NC4=O)C5)c3)cn2)CC1 (stereo not shown) [Compound 9]	> 1000
CC1(CN)CCN(c2cnc(Sc3ccc(NC(=O)COCCOCCOCCOCC(=O)Nc4ccc5c(c4)C(=O)N(C4CCC(=O)NC4=O)C5)cc3Cl)cn2)CC1 (stereo not shown) [Compound 11]	> 1000
Cc1ncsc1-c1ccc([C@H](C)NC(=O)[C@@H]2C[C@@H](O)CN2C(=O)[C@@H](NC(=O)COCCOCCOCCOCC(=O)Nc2cccc(Sc3cnc(N4CCC(C)(N)CC4)cn3)c2)C(C)(C)C)cc1 [Compound 12]	< 100
CC1(CN)CCN(c2cnc(Sc3cccc(NC(=O)CCC(=O)N4CCN(CCCCCCCCC(=O)Nc5cccc6c5CN(C5CCC(=O)NC5=O)C6=O)CC4)c3Cl)cn2)CC1 (stereo not shown) [Compound 13]	< 100

Target: T1, SHP2 protein
Test: Degradation activity on SHP2 protein in MIA Paca-2 cells (Western blot, DC50)
Format: cell-based
Design: endogenous in cells; host or cells: MIA Paca-2 cells
Conditions: read-out: Degradation activity for differenct cell lines MIA Paca-2 (DC50)
Summary of the method: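 DC50 is the concentration degrading 50% of SHP2 relative to DMSO control. It was derived by fitting Western blot band densitometry (anti-SHP2, GAPDH reference) from cells exposed 24 h to 0.1–100 nM compound in 0.1% DMSO.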

SMILES	DC50 [nM]
CC1(N)CCN(c2cnc(Sc3cccc(NC(=O)c4ccc(N5CCC(N6CCN(c7ccc(C(=O)NCc8ccc9c(c8)CN(C8CCC(=O)NC8=O)C9=O)nn7)CC6)CC5)nn4)c3)cn2)CC1 (stereo not shown) [Compound 498]	100 to 1000
CC1(N)CCN(c2cnc(Sc3cccc(NC(=O)c4ccc(N5CCC(N6CCN(c7ccc(C(=O)NCc8ccc9c(c8)CN(C8CCC(=O)NC8=O)C9=O)cc7F)CC6)CC5)c(F)c4)c3)cn2)CC1 (stereo not shown) [Compound 499]	< 100
CC1(N)CCN(c2cnc(Sc3cccc(NC(=O)c4ccc(N5CCC(N6CCN(c7ccc(C(=O)NCc8ccc9c(c8)CN(C8CCC(=O)NC8=O)C9=O)c(F)c7)CC6)CC5)cc4)c3)cn2)CC1 (stereo not shown) [Compound 502]	< 100
CC1(N)CCN(c2cnc(Sc3cccc(NC(=O)c4ccc(N5CCC(N6CCN(c7ccc(C(=O)NCc8ccc9c(c8)CN(C8CCC(=O)NC8=O)C9=O)c(F)c7)CC6)CC5)c(F)c4)c3)cn2)CC1 (stereo not shown) [Compound 503]	< 100
C[C@@H]1OCC2(CCN(c3cnc(Sc4cccc(NC(=O)c5ccc(C6CC(N7CC=C(c8ccc(C(=O)NCc9ccc%10c(c9)CN(C9CCC(=O)NC9=O)C%10=O)nc8)CC7)C6)cc5)c4)cn3)CC2)[C@@H]1N (stereo partly shown) [Compound 504]	< 100
CC1(N)CCN(c2cnc(Sc3cccc(NC(=O)c4ccc(N5CCC(N6CCC(c7ccc(C(=O)NCc8ccc9c(c8)CN(C8CCC(=O)NC8=O)C9=O)cc7)C(F)C6)CC5)c(F)c4)c3)cn2)CC1 (stereo not shown) [Compound 506]	< 100
Cc1cc(C(=O)Nc2cccc(Sc3cnc(N4CCC(C)(N)CC4)cn3)c2)ccc1N1CCC(N2CCN(c3nnc(C(=O)NCc4ccc5c(c4)CN(C4CCC(=O)NC4=O)C5=O)cc3Cl)CC2)CC1 (stereo not shown) [Compound 507]	< 100
CC1(N)CCN(c2cnc(Sc3cccc(NC(=O)c4ccc(N5CCC(N6CCN(c7cnc(C(=O)NCc8ccc9c(c8)CN(C8CCC(=O)NC8=O)C9=O)cc7Cl)CC6)CC5)cc4)c3)cn2)CC1 (stereo not shown) [Compound 508]	< 100
CC1(N)CCN(c2cnc(Sc3cccc(NC(=O)c4cnc(N5CCC(N6CCN(c7ccc(C(=O)NCc8ccc9c(c8)CN(C8CCC(=O)NC8=O)C9=O)nn7)CC6)CC5)cn4)c3)cn2)CC1 (stereo not shown) [Compound 509]	< 100
C[C@@H]1OCC2(CCN(c3cnc(Sc4cccc(NC(=O)c5ccc(N6CCC(N7CCC(c8ccc(C(=O)NCc9ccc%10c(c9)CN(C9CCC(=O)NC9=O)C%10=O)cc8)C(F)C7)CC6)c(F)c5)c4)cn3)CC2)[C@@H]1N (stereo partly shown) [Compound 510]	< 100
CC1(N)CCN(c2cnc(Sc3cccc(NC(=O)c4ccc(N5CCC(N6CC=C(C7CCC(C(=O)NCc8ccc9c(c8)CN(C8CCC(=O)NC8=O)C9=O)CC7)CC6)CC5)c(F)c4)c3)cn2)CC1 (stereo not shown) [Compound 511]	< 100
C[C@@H]1OCC2(CCN(c3cnc(Sc4cccc(NC(=O)c5ccc(N6CCC(N7CC=C(C8CCC(C(=O)NCc9ccc%10c(c9)CN(C9CCC(=O)NC9=O)C%10=O)CC8)CC7)CC6)c(F)c5)c4)cn3)CC2)[C@@H]1N (stereo partly shown) [Compound 512]	100 to 1000
CC1(N)CCN(c2cnc(Sc3cccc(NC(=O)c4ccc(N5CCC(N6CCN(c7ccc(C(=O)NCc8ccc9c(c8)CN(C8CCC(=O)NC8=O)C9=O)cc7F)CC6)CC5)cc4)c3)cn2)CC1 (stereo not shown) [Compound 513]	< 100
C[C@@H]1OCC2(CCN(c3cnc(Sc4cccc(NC(=O)c5ccc(N6CCC(N7CCN(c8ccc(C(=O)NCc9ccc%10c(c9)CN(C9CCC(=O)NC9=O)C%10=O)cc8F)CC7)CC6)c(F)c5)c4)cn3)CC2)[C@@H]1N (stereo partly shown) [Compound 515]	< 100
C[C@@H]1OCC2(CCN(c3cnc(Sc4cccc(NC(=O)c5ccc(N6CCC(N7CC=C(c8ccc(C(=O)NCc9ccc%10c(c9)CN(C9CCC(=O)NC9=O)C%10=O)nc8)CC7)C6)c(F)c5)c4)cn3)CC2)[C@@H]1N (stereo partly shown) [Compound 516]	< 100
C[C@@H]1OCC2(CCN(c3cnc(Sc4cccc(NCc5ccc(N6CCC(N7CC=C(c8ccc(C(=O)NCc9ccc%10c(c9)CN(C9CCC(=O)NC9=O)C%10=O)nc8Cl)CC7)CC6)c(F)c5)c4)cn3)CC2)[C@@H]1N (stereo partly shown) [Compound 518]	100 to 1000
C[C@@H]1OCC2(CCN(c3cnc(Sc4cccc(NC(=O)c5ccc(N6CCC(N7CC=C(c8ccc(C(=O)NCc9ccc%10c(c9)CN(C9CCC(=O)NC9=O)C%10=O)nn8)CC7)C6)cc5)c4)cn3)CC2)[C@@H]1N (stereo partly shown) [Compound 520]	< 100
